Reference: the NIST ThermoML archive (doi:10.1021/je0604481)
Numbers after ± are expanded uncertainties.

Assay: mn = molality of the nth substance listed, in mol/kg
Conditions: Liquid; for viscosity: Capillary tube (Ostwald / Ubbelohde) method; for mass density: Constant-volume piezometry

O=S(=O)([O-])[O-].[Mg+2] [magnesium sulfate] + O
Conditions	mass density [kg/m3]	viscosity [mPa·s]
348.15 K, 100 kPa, m1 = 2.291	–	1.503 ± 0.024
348.15 K, 101 kPa, m1 = 0.084	984.5 ± 0.61	–
348.15 K, 101 kPa, m1 = 0.261	1004.83 ± 0.62	–
348.15 K, 101 kPa, m1 = 0.469	1028.4 ± 0.64	–
348.15 K, 101 kPa, m1 = 0.841	1069.05 ± 0.67	–
348.15 K, 10000 kPa, m1 = 0.437	–	0.4948 ± 0.0082
348.15 K, 10000 kPa, m1 = 2.291	–	1.514 ± 0.024
348.15 K, 30000 kPa, m1 = 0.437	–	0.5024 ± 0.0083
348.15 K, 30000 kPa, m1 = 2.291	–	1.536 ± 0.025
348.2 K, 100 kPa, m1 = 1.824	–	1.127 ± 0.018
348.2 K, 10000 kPa, m1 = 1.824	–	1.135 ± 0.018
348.2 K, 30000 kPa, m1 = 1.824	–	1.151 ± 0.019
348.23 K, 2118 kPa, m1 = 2.224	1208.2 ± 0.8	–
348.23 K, 8002 kPa, m1 = 2.224	1210.4 ± 0.8	–
348.23 K, 14710 kPa, m1 = 2.224	1212.2 ± 0.8	–
348.23 K, 25300 kPa, m1 = 2.224	1215.7 ± 0.8	–
348.23 K, 30020 kPa, m1 = 2.224	1217.1 ± 0.9	–
348.25 K, 100 kPa, m1 = 0.255	–	0.4399 ± 0.0073
348.25 K, 10000 kPa, m1 = 0.255	–	0.4432 ± 0.0073
348.25 K, 30000 kPa, m1 = 0.255	–	0.4502 ± 0.0075
348.32 K, 100 kPa, m1 = 0.085	–	0.3976 ± 0.0066
348.32 K, 10000 kPa, m1 = 0.085	–	0.4008 ± 0.0067
348.32 K, 30000 kPa, m1 = 0.085	–	0.4066 ± 0.0068
348.35 K, 100 kPa, m1 = 2.623	–	1.849 ± 0.03
348.35 K, 10000 kPa, m1 = 2.623	–	1.863 ± 0.03
348.35 K, 30000 kPa, m1 = 2.623	–	1.889 ± 0.03
348.36 K, 100 kPa, m1 = 0.722	–	0.5831 ± 0.0096
348.36 K, 10000 kPa, m1 = 0.722	–	0.5875 ± 0.0096
348.36 K, 30000 kPa, m1 = 0.722	–	0.5961 ± 0.0098
348.75 K, 100 kPa, m1 = 0.923	–	0.6495 ± 0.011
348.75 K, 10000 kPa, m1 = 0.923	–	0.6548 ± 0.011
348.75 K, 30000 kPa, m1 = 0.923	–	0.6642 ± 0.011
358.95 K, 101 kPa, m1 = 2.224	1200.88 ± 0.75	–
358.95 K, 101 kPa, m1 = 2.535	1228.61 ± 0.77	–
370.1 K, 100 kPa, m1 = 2.291	–	1.068 ± 0.017
370.1 K, 10000 kPa, m1 = 2.291	–	1.078 ± 0.017
370.1 K, 30000 kPa, m1 = 2.291	–	1.099 ± 0.018
370.4 K, 100 kPa, m1 = 0.923	–	0.4894 ± 0.0081
370.4 K, 10000 kPa, m1 = 0.923	–	0.4945 ± 0.0082
370.4 K, 30000 kPa, m1 = 0.923	–	0.5035 ± 0.0083
370.45 K, 100 kPa, m1 = 0.085	–	0.3053 ± 0.0051
370.45 K, 100 kPa, m1 = 0.722	–	0.4386 ± 0.0073
370.45 K, 10000 kPa, m1 = 0.085	–	0.3084 ± 0.0052
370.45 K, 10000 kPa, m1 = 0.722	–	0.4433 ± 0.0073
370.45 K, 30000 kPa, m1 = 0.085	–	0.3144 ± 0.0053
370.45 K, 30000 kPa, m1 = 0.722	–	0.4516 ± 0.0075
370.75 K, 100 kPa, m1 = 2.623	–	1.295 ± 0.021
370.75 K, 10000 kPa, m1 = 2.623	–	1.308 ± 0.021
370.75 K, 30000 kPa, m1 = 2.623	–	1.333 ± 0.022
371.44 K, 100 kPa, m1 = 1.824	–	0.804 ± 0.013
371.44 K, 10000 kPa, m1 = 1.824	–	0.811 ± 0.013
371.44 K, 30000 kPa, m1 = 1.824	–	0.827 ± 0.013
371.9 K, 100 kPa, m1 = 0.437	–	0.3654 ± 0.0061
371.9 K, 10000 kPa, m1 = 0.437	–	0.3694 ± 0.0062
371.9 K, 30000 kPa, m1 = 0.437	–	0.3766 ± 0.0063
372.4 K, 100 kPa, m1 = 0.255	–	0.33 ± 0.0055
372.4 K, 10000 kPa, m1 = 0.255	–	0.3336 ± 0.0056
372.4 K, 30000 kPa, m1 = 0.255	–	0.34 ± 0.0057
373.22 K, 3020 kPa, m1 = 2.535	1220.3 ± 0.8	–
373.22 K, 6610 kPa, m1 = 2.535	1221.6 ± 0.8	–
373.22 K, 14380 kPa, m1 = 2.535	1224.1 ± 0.8	–
373.22 K, 21080 kPa, m1 = 2.535	1226.1 ± 0.9	–
373.22 K, 24710 kPa, m1 = 2.535	1227.4 ± 0.9	–
373.22 K, 29800 kPa, m1 = 2.535	1229 ± 0.9	–
373.24 K, 2275 kPa, m1 = 2.224	1192.8 ± 0.8	–
373.24 K, 7355 kPa, m1 = 2.224	1194.5 ± 0.8	–
373.24 K, 12870 kPa, m1 = 2.224	1196.4 ± 0.8	–
373.24 K, 20420 kPa, m1 = 2.224	1198.9 ± 0.8	–
373.24 K, 29820 kPa, m1 = 2.224	1201.7 ± 0.9	–
394.16 K, 10000 kPa, m1 = 2.623	–	0.963 ± 0.016
394.16 K, 30000 kPa, m1 = 2.623	–	0.985 ± 0.016
396.25 K, 10000 kPa, m1 = 0.923	–	0.377 ± 0.0063
396.25 K, 30000 kPa, m1 = 0.923	–	0.3862 ± 0.0064
397.1 K, 10000 kPa, m1 = 1.824	–	0.605 ± 0.0099
397.1 K, 30000 kPa, m1 = 1.824	–	0.619 ± 0.01
397.14 K, 10000 kPa, m1 = 0.085	–	0.2381 ± 0.0041
397.14 K, 30000 kPa, m1 = 0.085	–	0.2437 ± 0.0042
398.15 K, 5810 kPa, m1 = 2.535	1203.8 ± 0.8	–
398.15 K, 11100 kPa, m1 = 2.535	1205.6 ± 0.8	–
398.15 K, 21700 kPa, m1 = 2.535	1209 ± 0.9	–
398.15 K, 29400 kPa, m1 = 2.535	1211.5 ± 0.9	–
398.19 K, 2452 kPa, m1 = 2.224	1175.3 ± 0.8	–
398.19 K, 7355 kPa, m1 = 2.224	1177.2 ± 0.8	–
398.19 K, 12080 kPa, m1 = 2.224	1178.9 ± 0.8	–
398.19 K, 19850 kPa, m1 = 2.224	1181.7 ± 0.8	–
398.19 K, 26220 kPa, m1 = 2.224	1183.8 ± 0.9	–
398.7 K, 10000 kPa, m1 = 2.291	–	0.774 ± 0.013
398.7 K, 30000 kPa, m1 = 2.291	–	0.792 ± 0.013
398.75 K, 10000 kPa, m1 = 0.437	–	0.2834 ± 0.0048
398.75 K, 30000 kPa, m1 = 0.437	–	0.2901 ± 0.0049
399.24 K, 10000 kPa, m1 = 0.722	–	0.3306 ± 0.0055
399.24 K, 30000 kPa, m1 = 0.722	–	0.3384 ± 0.0057
399.44 K, 10000 kPa, m1 = 0.255	–	0.2566 ± 0.0044
399.44 K, 30000 kPa, m1 = 0.255	–	0.2625 ± 0.0045
422.1 K, 10000 kPa, m1 = 1.824	–	0.477 ± 0.0079
422.1 K, 30000 kPa, m1 = 1.824	–	0.49 ± 0.0081
422.35 K, 10000 kPa, m1 = 0.923	–	0.3 ± 0.0051
422.35 K, 30000 kPa, m1 = 0.923	–	0.3081 ± 0.0052
422.7 K, 10000 kPa, m1 = 0.085	–	0.1945 ± 0.0034
422.7 K, 30000 kPa, m1 = 0.085	–	0.1999 ± 0.0035
423.85 K, 10000 kPa, m1 = 0.255	–	0.2113 ± 0.0037
423.85 K, 30000 kPa, m1 = 0.255	–	0.2169 ± 0.0037
424.13 K, 10000 kPa, m1 = 0.437	–	0.23 ± 0.004
424.13 K, 30000 kPa, m1 = 0.437	–	0.2366 ± 0.0041
428.16 K, 10000 kPa, m1 = 0.722	–	0.2597 ± 0.0044
428.16 K, 30000 kPa, m1 = 0.722	–	0.2673 ± 0.0045
447.16 K, 10000 kPa, m1 = 0.255	–	0.1798 ± 0.0032
447.16 K, 30000 kPa, m1 = 0.255	–	0.1855 ± 0.0033
447.42 K, 10000 kPa, m1 = 0.437	–	0.1966 ± 0.0034
447.42 K, 30000 kPa, m1 = 0.437	–	0.2019 ± 0.0035
448.24 K, 10000 kPa, m1 = 0.085	–	0.1643 ± 0.0029
448.24 K, 30000 kPa, m1 = 0.085	–	0.1694 ± 0.003
